One experiment concerns the target T1, HCV NS3-NS4A protease (Hepatitis C virus genotype 1b, UniProt P26663).
T1 construct: made in house
As to the kind of experiment: HCV Protease Assay (SensoLyte 620 HCV Protease Assay kit). Type of experiment: biochemical. Conditions: 1.2 nM HCV NS3-NS4A protease, 60 min at room temperature, 5% DMSO. In a few lines: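 Protease at 1.2 nM, run with the SensoLyte 620 fluorogenic kit under supplier conditions, with compounds at several concentrations in buffer with 5% final DMSO. Reactions ran 60 min at room temperature before fluorescence reading; IC50 from four-parameter sigmoidal fit of percent inhibition.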

The subject of another experiment is mutant protease R155Q. As to the kind of experiment: Resistance profile, mutant protease R155Q. It counts as biochemical, HCV. Conditions: ratio of inhibitory activity against mutant enzyme over non-mutant enzyme. The method, then:
(§1) General procedure: Measurement of the inhibitory effect of compounds on HCV protease activity was performed with the SensoLyte™ 620 HCV Protease Assay kit from AnaSpec, Inc. (San Jose, Calif.) under conditions described by the supplier using 1.2 nM HCV NS3-NS4A protease, which was obtained according to Taremi et al. (Protein Science, 1998, 7, 2143-2149). The compounds were tested at a variety of concentrations in assay buffer containing a final DMSO concentration of 5%. Reactions were allowed to proceed for 60 min at room temperature and fluorescence measurements were recorded with a Tecan Infinity Spectrofluorimeter. The IC50 values were determined from the percent inhibition versus concentration data using a sigmoidal non-linear regression analysis based on four parameters with Tecan Magellan software.
(§2) Compounds were evaluated against three mutant proteases R155Q, A156S, and D168A, as summarized in Table 8, wherein A represents a value smaller than 1, and B represents a value between 1 to 10, and C represents a value greater than 10. The fold of change in inhibitory activity was determined by measuring the ratio of the inhibitory activity of a compound against a mutant enzyme over the inhibitory activity of the same compound against non-mutant enzyme. The inhibitory activity was determined using the procedure as described in Example 31.

The next experiment deals with mutant protease A156S. Description: Resistance profile, mutant protease A156S. The following applies: ratio of inhibitory activity against mutant enzyme over non-mutant enzyme. It counts as biochemical, HCV. The method, then: as §1, §2
Another experiment concerns mutant protease D168A. Description: Resistance profile, mutant protease D168A. Type of experiment: biochemical, HCV. Conditions: ratio of inhibitory activity against mutant enzyme over non-mutant enzyme. The method, then: as §1, §2

pIC50: −log10 of the molar value.

These results are taken from patent US8003659B2, “Macrocyclic serine protease inhibitors” (Indenix Pharmaceuticals, Inc., priority 2008, dated 2011).

Broadly, the pIC50 is −log10 of the IC50, conventionally taken in molar units. High values mean a small IC50, low ones a large IC50.

T1 sequence (P26663 1027-1208): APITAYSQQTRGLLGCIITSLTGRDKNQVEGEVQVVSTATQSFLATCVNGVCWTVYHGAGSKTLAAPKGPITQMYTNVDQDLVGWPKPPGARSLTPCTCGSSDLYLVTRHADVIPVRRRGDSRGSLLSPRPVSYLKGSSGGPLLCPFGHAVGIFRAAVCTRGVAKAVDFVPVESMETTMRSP

Molecule `COc1ccc2c(O[C@H]3C[C@H]4C(=O)N(C)CCCC/C=C\[C@@H]5C[C@@]5(C(=O)NS(=O)(=O)C5CC5)NC(=O)N4C3)cc(-c3nc(C(C)C)cs3)nc2c1Cl` [Compound 62d, (Z)-(4R,6S,15S,17S)-[17-[8-chloro-7-methoxy-2-(4-isopropylthiazol-2-yl)quinolin-4-yloxy]-13-N-methyl-2,14-dioxo-1,3,13-triazatricyclo[13.3.0.0]octadec-7-en-4-yl]carbonyl(cyclopropyl)sulfonamide] had a pIC50 at HCV NS3-NS4A protease above 6.00. In addition, the “Fold-Change R155Q” value with mutant protease R155Q is recorded as “A (A represents a value smaller than 1)”. Besides, the “Fold-Change A156S” value in the experiment with mutant protease A156S is recorded as “A (A represents a value smaller than 1)”. Further, the “Fold-Change D168A” value with mutant protease D168A is recorded as “C (C represents a value greater than 10)”.
